{"source": "patent US8247211B2", "about": "“Glycopeptide antibiotics” (American Cyanamid Company, priority 2001, dated 2012)", "assay_in_all_cases": "In vitro antibacterial evaluation: minimum inhibitory concentration (MIC), broth dilution method", "type_in_all_cases": "cell-based", "conditions_in_all_cases": "18 hours at 35° C.", "key": {"[1]": {"test_system": "Enterococcus sp.", "outline": "(§1)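 First, organisms are seeded at 5×10^5 CFU/mL into Muller-Hinton II […]. Next, antibiotic is applied across 64-0.06 μg/mL by broth dilution (NCCLS M7-A2). Finally, the lowest inhibitory concentration is recorded as MIC.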"}, "[2]": {"test_system": "Escherichia coli", "outline": "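Susceptibility determined by NCCLS-recommended broth dilution (M7-A2), Muller-Hinton II […]. Concentration span 64-0.06 μg/mL, inoculum 5×10^5 CFU/mL. Isolates include strains resistant to methicillin, penicillin and/or vancomycin.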"}, "[3]": {"test_system": "Staphylococcus sp.", "outline": "as §1"}, "[4]": {"test_system": "Streptococcus sp.", "outline": "as §1"}}}
{"substance": "α-O-[(Dodecylanaino)carbonyl]-cyclo[glycyl-β-methylphenylalanyl-O-(4-O-hexopyranosylhexopyranosyl)tyrosyl-3-(2-iminoimidazolidin-4-yl)seryl-3-(3-hexopyranosyl-2-iminoimidazoliclin-4-yl)serylseryl] [Example 254]", "values": [{"measurement": "MIC Enterococcus avium (GC 4558)", "setting": "[1]; Enterococcus avium (GC 4558)", "result": 4, "unit": "µg/mL"}, {"measurement": "MIC Enterococcus faecalis (ATCC 29212)", "setting": "[1]; Enterococcus faecalis (ATCC 29212)", "result": 8, "unit": "µg/mL"}, {"measurement": "MIC Enterococcus faecalis (GC 2242)", "setting": "[1]; Enterococcus faecalis (GC 2242)", "result": 8, "unit": "µg/mL"}, {"measurement": "MIC Enterococcus faecalis (GC 4552)", "setting": "[1]; Enterococcus faecalis (GC 4552)", "result": 8, "unit": "µg/mL"}, {"measurement": "MIC Enterococcus faecalis (GC 4553)", "setting": "[1]; Enterococcus faecalis (GC 4553)", "result": 4, "unit": "µg/mL"}, {"measurement": "MIC Enterococcus faecalis (GC 4554)", "setting": "[1]; Enterococcus faecalis (GC 4554)", "result": 8, "unit": "µg/mL"}, {"measurement": "MIC Enterococcus faecium (GC 2243)", "setting": "[1]; Enterococcus faecium (GC 2243)", "result": 4, "unit": "µg/mL"}, {"measurement": "MIC Enterococcus faecium (GC 4556)", "setting": "[1]; Enterococcus faecium (GC 4556)", "result": 8, "unit": "µg/mL"}, {"measurement": "MIC Enterococcus faecium (GC 4557)", "setting": "[1]; Enterococcus faecium (GC 4557)", "result": 2, "unit": "µg/mL"}, {"measurement": "MIC Enterococcus faecalis (ATCC 29212)", "setting": "[1]; broth dilution, strain ATCC 29212", "result": 8, "unit": "µg/mL"}, {"measurement": "MIC Enterococcus faecalis (GC 2242)", "setting": "[1]; broth dilution, strain GC 2242", "result": 8, "unit": "µg/mL"}, {"measurement": "MIC Enterococcus faecium (GC 2243)", "setting": "[1]; broth dilution, strain GC 2243", "result": 4, "unit": "µg/mL"}, {"measurement": "MIC Enterococcus faecalis (GC 4552)", "setting": "[1]; broth dilution, strain GC 4552", "result": 8, "unit": "µg/mL"}, {"measurement": "MIC Enterococcus faecalis (GC 4553)", "setting": "[1]; broth dilution, strain GC 4553", "result": 4, "unit": "µg/mL"}, {"measurement": "MIC Enterococcus faecalis (GC 4554)", "setting": "[1]; broth dilution, strain GC 4554", "result": 8, "unit": "µg/mL"}, {"measurement": "MIC Enterococcus faecium (GC 4556)", "setting": "[1]; broth dilution, strain GC 4556", "result": 8, "unit": "µg/mL"}, {"measurement": "MIC Enterococcus faecium (GC 4557)", "setting": "[1]; broth dilution, strain GC 4557", "result": 2, "unit": "µg/mL"}, {"measurement": "MIC Enterococcus avium (GC 4558)", "setting": "[1]; broth dilution, strain GC 4558", "result": 4, "unit": "µg/mL"}, {"measurement": "MIC Escherichia coli (ATCC 25922)", "setting": "[2]; Escherichia coli (ATCC 25922)", "result": 64, "unit": "µg/mL"}, {"measurement": "MIC Escherichia coli (GC 4559)", "setting": "[2]; Escherichia coli (GC 4559)", "result": 8, "unit": "µg/mL"}, {"measurement": "MIC Escherichia coli (GC 4560)", "setting": "[2]; Escherichia coli (GC 4560)", "result": 4, "unit": "µg/mL"}, {"measurement": "MIC Coagulase Negative Staphylococcus (GC 4547)", "setting": "[3]; Coagulase Negative Staphylococcus (GC 4547)", "result": 4, "unit": "µg/mL"}, {"measurement": "MIC Coagulase Negative Staphylococcus (GC 4548)", "setting": "[3]; Coagulase Negative Staphylococcus (GC 4548)", "result": 4, "unit": "µg/mL"}, {"measurement": "MIC Coagulase Negative Staphylococcus (GC 4549)", "setting": "[3]; Coagulase Negative Staphylococcus (GC 4549)", "result": 2, "unit": "µg/mL"}, {"measurement": "MIC Coagulase Negative Staphylococcus (GC 4551)", "setting": "[3]; Coagulase Negative Staphylococcus (GC 4551)", "result": 4, "unit": "µg/mL"}, {"measurement": "MIC Coagulase Negative Staphylococcus (ID-3941)", "setting": "[3]; Coagulase Negative Staphylococcus (ID-3941)", "result": 2, "unit": "µg/mL"}, {"measurement": "MIC Staphylococcus aureus (ATCC 29213)", "setting": "[3]; Staphylococcus aureus (ATCC 29213)", "result": 4, "unit": "µg/mL"}, {"measurement": "MIC Staphylococcus aureus (GC 1131)", "setting": "[3]; Staphylococcus aureus (GC 1131)", "result": 4, "unit": "µg/mL"}, {"measurement": "MIC Staphylococcus aureus (GC 4541)", "setting": "[3]; Staphylococcus aureus (GC 4541)", "result": 4, "unit": "µg/mL"}, {"measurement": "MIC Staphylococcus aureus (GC 4542)", "setting": "[3]; Staphylococcus aureus (GC 4542)", "result": 4, "unit": "µg/mL"}, {"measurement": "MIC Staphylococcus aureus (GC 4544)", "setting": "[3]; Staphylococcus aureus (GC 4544)", "result": 4, "unit": "µg/mL"}, {"measurement": "MIC Staphylococcus aureus (GC 4545)", "setting": "[3]; Staphylococcus aureus (GC 4545)", "result": 8, "unit": "µg/mL"}, {"measurement": "MIC Staphylococcus aureus-SMITH (GC 4543)", "setting": "[3]; Staphylococcus aureus-SMITH (GC 4543)", "result": 4, "unit": "µg/mL"}, {"measurement": "MIC Staphylococcus haemolyticus (GC 4546)", "setting": "[3]; Staphylococcus haemolyticus (GC 4546)", "result": 4, "unit": "µg/mL"}, {"measurement": "MIC Staphylococcus aureus (ATCC 29213)", "setting": "[3]; broth dilution, strain ATCC 29213", "result": 4, "unit": "µg/mL"}, {"measurement": "MIC Staphylococcus aureus (GC 1131)", "setting": "[3]; broth dilution, strain GC 1131", "result": 4, "unit": "µg/mL"}, {"measurement": "MIC Staphylococcus aureus (GC 4541)", "setting": "[3]; broth dilution, strain GC 4541", "result": 4, "unit": "µg/mL"}, {"measurement": "MIC Staphylococcus aureus (GC 4542)", "setting": "[3]; broth dilution, strain GC 4542", "result": 4, "unit": "µg/mL"}, {"measurement": "MIC Staphylococcus aureus-SMITH (GC 4543)", "setting": "[3]; broth dilution, strain GC 4543", "result": 4, "unit": "µg/mL"}, {"measurement": "MIC Staphylococcus aureus (GC 4544)", "setting": "[3]; broth dilution, strain GC 4544", "result": 4, "unit": "µg/mL"}, {"measurement": "MIC Staphylococcus aureus (GC 4545)", "setting": "[3]; broth dilution, strain GC 4545", "result": 8, "unit": "µg/mL"}, {"measurement": "MIC Staphylococcus haemolyticus (GC 4546)", "setting": "[3]; broth dilution, strain GC 4546", "result": 4, "unit": "µg/mL"}, {"measurement": "MIC Coagulase Negative Staphylococcus (GC 4547)", "setting": "[3]; broth dilution, strain GC 4547", "result": 4, "unit": "µg/mL"}, {"measurement": "MIC Coagulase Negative Staphylococcus (GC 4548)", "setting": "[3]; broth dilution, strain GC 4548", "result": 4, "unit": "µg/mL"}, {"measurement": "MIC Coagulase Negative Staphylococcus (GC 4549)", "setting": "[3]; broth dilution, strain GC 4549", "result": 2, "unit": "µg/mL"}, {"measurement": "MIC Coagulase Negative Staphylococcus (GC 4551)", "setting": "[3]; broth dilution, strain GC 4551", "result": 4, "unit": "µg/mL"}, {"measurement": "MIC Coagulase Negative Staphylococcus (ID-3941)", "setting": "[3]; broth dilution, strain ID-3941", "result": 2, "unit": "µg/mL"}, {"measurement": "MIC Streptococcus agalactiae (GC 4564)", "setting": "[4]; Streptococcus agalactiae (GC 4564)", "result": 4, "unit": "µg/mL"}, {"measurement": "MIC Streptococcus pneumoniae (GC 4565)", "setting": "[4]; Streptococcus pneumoniae (GC 4565)", "result": 16, "unit": "µg/mL"}, {"measurement": "MIC Streptococcus pyogenes (ID-3187)", "setting": "[4]; Streptococcus pyogenes (ID-3187)", "result": 8, "unit": "µg/mL"}, {"measurement": "MIC Streptococcus agalactiae (GC 4564)", "setting": "[4]; broth dilution, strain GC 4564", "result": 4, "unit": "µg/mL"}, {"measurement": "MIC Streptococcus pneumoniae (GC 4565)", "setting": "[4]; broth dilution, strain GC 4565", "result": 16, "unit": "µg/mL"}, {"measurement": "MIC Streptococcus pyogenes (ID-3187)", "setting": "[4]; broth dilution, strain ID-3187", "result": 8, "unit": "µg/mL"}]}
